Patent US20030108951A1, “Use of diseases-associated gene” (priority 2000, published 2003)

Columns and labels:
CARP gene [1] = test: CARP gene expression in primary neonatal rat cardiomyocytes, TaqMan quantification; assay type: cell-based; details: serum-removed medium, added to 10 nM, 100 nM or 1000 nM, at maximum
CARP gene [2] = test: CARP gene expression in H9c2 cells, TaqMan PCR; assay type: cell-based, rat; details: serum-free DMEM, 10 nM or 100 nM, 4 hours and 8 hours, at maximum
Experimental: H9c2 cell is a cell line derived from rat cardiomyocytes and was purchased from ATCC. The cells were incubated in DMEM medium supplemented with 10% calf serum. After recovery of cells using trypsin, the cells were inoculated on a 12-well plate in 100000 cells/well, followed by incubation in a 10% calf serum-containing DMEM medium for 12 hours. Thereafter, the medium was exchanged with a fresh serum-free DMEM medium, to which norepinephrine was supplemented in 10 nM or 100 nM, and the CARP gene expression level was quantitatively determined by TaqMan PCR with passage of 4 hours and 8 hours. Also, the copy number of […] gene (G3PDH) was quantitatively determined in a similar manner, and the copy number of CARP gene calculated was corrected by G3PDH. […] According to this system, the CARP gene expression can be quantitatively determined in response to various hypertrophic stimuli or in the apoptosis induction stage, and thus the system can be used for screening a CARP gene expression regulator. Moreover, by performing reporter gene assay using a promoter of the CARP gene, a low variation rate can be changed to a high variation rate to achieve high sensitization, thus enabling to high throughput screening.

## CC[C@H](C)[C@H](NC(=O)[C@H](CC(=O)O)NC(=O)[C@H](CC(C)C)NC(=O)[C@H](Cc1c[nH]cn1)NC(=O)[C@@H]1CSSC[C@H](N)C(=O)N[C@@H](CO)C(=O)N[C@H]2CSSC[C@H](NC(=O)[C@H](CCC(=O)O)NC(=O)[C@H](CCCCN)NC(=O)[C@H](CC(=O)O)NC(=O)[C@H](CCSC)NC(=O)[C@H](CC(C)C)NC(=O)[C@H](CO)NC(=O)[C@H](CO)NC2=O)C(=O)N[C@@H](C(C)C)C(=O)N[C@@H](Cc2ccc(O)cc2)C(=O)N[C@@H](Cc2ccccc2)C(=O)N1)C(=O)N[C@H](C(=O)N[C@@H](Cc1c[nH]c2ccccc12)C(=O)O)[C@@H](C)CC [endothelin]
CARP gene [1]
  increase of expression of the CARP gene: about 3 times

## NC[C@H](O)c1ccc(O)c(O)c1 [norepinephrine]
CARP gene [1]
  increase of expression of the CARP gene: about 3 times
CARP gene [2]
  increase of expression level of CARP gene (corrected by G3PDH): ~2 fold
